From paper PMC9738062, “Selectively Halogenated Flavonolignans—Preparation and Antibacterial Activity” (International Journal of Molecular Sciences, 2022)

What was measured:
[1] = Ferric reducing antioxidant power (FRAP); conditions: Fe2+ equivalents
Protocol: (§1) To further elucidate how halogenation affects other properties of the flavonoids studied, their 2,2′-azino-bis-(3-ethylbenzothiazoline-6-sulfonic acid) cation (ABTS) and 1,1-diphenyl-2-picrylhydrazyl (DPPH) radical scavenging, the Folin–Ciocalteu reagent (FCR) reducing, the ferric-reducing antioxidant power (FRAP), and the anti-lipoperoxidation activities were evaluated by in vitro methods (Supplementary Information Tables S1 and S2).
(§2) The antiradical activity was evaluated by the ability to scavenge ABTS and DPPH radicals. Reducing capacity was assessed by the ability to reduce the Folin–Ciocalteu reagent (FCR) and ferric ions (FRAP). The ability to inhibit lipid peroxidation of pooled male rat microsomal liver membranes induced by tert-butyl hydroperoxide was also evaluated and the results were expressed as IC50 values.

[2] = test system: Vibrio campbellii BAA 1118 (AI-1); test: microbe, parasite or virus in culture; format: cell-based; conditions: for EC50: Vibrio campbellii, BAA1118, 16 h, read-out: EC50 (concentration that halved the communication); for SI (selectivity index): ratio IC50 (viability) / EC50 (communication), BAA 1118
How it was run: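 Mutant V. campbellii strains responding only to AI-1 (BAA-1118) or AI-2 (BAA-1119), seeded at 5 × 10^5 CFU/mL in Autoinducer Bioassay medium (potassium phosphate pH 7.0); compounds at final 0.2–200 µM.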

[3] = test system: P. aeruginosa (CCM, 3955); test: Inhibition of biofilm formation (surface colonization); format: cell-based; conditions: Pseudomonas aeruginosa; highest tested concentration 100 µM
Protocol: Biofilm formation is a fully organized, multistep process in which bacteria are constantly communicating with each other.
The activity of derivatives on biofilms was tested with S. aureus (ATCC, 25923) and P. aeruginosa (CCM, 3955), according to the previously described method. The highest tested concentration of derivatives was 100 µM. The activity was evaluated using an IC50 comparison between the parent compound and its derivative.

[4] = test system: Vibrio campbellii BAA 1119 (AI-2); test: Viability of the quorum-sensing reporter culture (resazurin assay), AI-2 strain; format: cell-based; conditions: BAA1119, V. campbellii BAA 1119, resazurin assay, read-out: IC50 (concentration that halved the viability)
From the text: Commercially available strains of Vibrio campbellii were used to evaluate the ability of flavonoids and their derivatives to inhibit bacterial quorum sensing. V. campbellii uses two types of autoinducing molecules for its communication—N-acyl-homoserine lactones (Autoinducer I, AI-1, strain BAA 1118) and furanosyl borate diester (Autoinducer II, AI-2, strain BAA 1119). AI-1-based communication is mainly used by Gram-negative bacteria, while AI-2-based communication is found in both Gram-negative and Gram-positive bacteria. The mutant strains of V. campbellii BA1118 and BA1119 respond only to AI-1 or AI-2, respectively, and the response to the respective AI concentration is measured as luminescence. The higher the AI concentration, the higher the luminescence signal. The ability to inhibit the communication was expressed as the selectivity index (SI), calculated as the ratio between the concentration that halved the viability (IC50) and the concentration that halved the communication (EC50) of the respective V. campbellii strains. […] The antimicrobial activity of quorum-sensing inhibitors is undesirable because it creates a selection pressure and can lead to the development of resistance.
The inhibition of bacterial extracellular communication was measured using Vibrio campbellii strains BAA-1118 and BAA-1119. The experiment was performed according to the methods of Szemerédi et al.. Briefly, 5 × 10^5 CFU/mL (colony-forming units per milliliter) were seeded in an Autoinducer Bioassay medium (NaCl 17.5 g/L, MgSO4 12.3 g/L, Casamino acids 2 g/L, 10 mL of 1 M potassium phosphate pH 7.0, 10 mL of 0.1 M L-arginine, and 10 mL of glycerol in 970 mL of deionized water) in a 96-well plate. Immediately, the tested compounds were added at the final concentration of 0.2–200 µM and luminescence was recorded for 16 h by a SpectraMax i3x microplate reader set at 30 °C, an integration time of 10,000 ms, and shaking for 60 s before measurement. […] The selectivity index was calculated as the […]. The EC50 and IC50 were calculated using GraphPad Prism software version 5.00 for Windows with a nonlinear regression curve fit.

[5] = test system: lipopolysaccharide-stimulated macrophages (RAW 264.7); test: Inhibition of nitric oxide production (Griess reagent); format: cell-based, murine; conditions: Mus musculus, RAW264.7; LPS 100 ng/mL, 24 h; highest tested concentration 100 µM; read-out: NO Production IC50
Protocol: The anti-inflammatory activity of the tested flavonolignans was determined as the ability to reduce nitric oxide production by murine macrophages (RAW 264.7) stimulated by bacterial lipopolysaccharides, as previously described. […] For the experiment, 1 × 10^6 cells/mL was seeded into the 96-well plate (100 µL/well). […] After 24 h, the medium was mixed with Griess reagent (0.04 g/mL), prepared freshly in deionized water at the ratio of 1:1. The absorbance was measured after 15 min at 540 nm by the SpectraMax i3x microplate reader. Cell viability was determined by resazurin assay.

[6] = Folin-Ciocalteu reagent reduction; conditions: gallic acid equivalents
Protocol: as §1, §2

| SMILES | FRAP [Fe2+eq] [1] [Fe2+eq] | EC50 [2] [µM] | SI (selectivity index) [2] | IC50 [3] [µM] | IC50 [4] [µM] | IC50 [5] [µM] | FCR [GAE] [6] [GAE] |
| --- | --- | --- | --- | --- | --- | --- | --- |
| COc1cc([C@H]2Oc3cc([C@H]4Oc5cc(O)cc(O)c5C(=O)[C@@H]4O)ccc3O[C@@H]2CO)ccc1O [3a, silybin A, reference compound] | 0.071 ± 0.003 | 97.1 ± 1 | 1.3 ± 0.1 | 77 | 120 ± 3.1 | 53.9 ± 4.9 | 1.35 ± 0.06 |
| COc1cc([C@@H]2Oc3cc([C@H]4Oc5cc(O)cc(O)c5C(=O)[C@@H]4O)ccc3O[C@H]2CO)ccc1O [3b, silybin B, reference compound] | 0.078 ± 0.004 | 121.5 ± 0.6 | 0.96 ± 0.01 | 105 | 152 ± 2.4 | 55.6 ± 5.5 | 1.39 ± 0.08 |
| O=C1c2c(O)cc(O)cc2OC(c2ccc(O)c(O)c2)C1O (centres unmarked) [compound 1, taxifolin, reference compound] | 1.45 ± 0.07 | 63.7 ± 2.7 | 1.1 ± 0.1 |  | 80 ± 1.7 | 52.4 ± 1.2 | 1.92 ± 0.05 |
| O=c1c(O)c(-c2ccc(O)c(O)c2)oc2cc(O)cc(O)c12 [compound 2, quercetin, reference compound] | 2.84 ± 0.02 | 15.9 ± 0.5 | 1.5 ± 0.1 |  | 10.6 ± 0.5 | 14.6 ± 2.1 | 2.33 ± 0.05 |
| COc1cc(C2Oc3cc(-c4oc5cc(O)cc(O)c5c(=O)c4O)ccc3OC2CO)ccc1O (centres unmarked) [compound 4, 2,3-dehydrosilybin AB, reference compound] | 0.72 ± 0.03 | 59.9 ± 2 | 2.7 ± 0.2 |  | 25.3 ± 1 | 27.9 ± 0.5 | 1.68 ± 0.03 |
| COc1cc([C@@H]2Oc3c(O)cc([C@H]4Oc5cc(O)cc(O)c5C(=O)[C@@H]4O)cc3[C@H]2CO)ccc1O [compound 5, silychristin A, reference compound] | 0.25 ± 0.02 | > 200 |  | 73 | > 200 | 72.5 ± 5.4 | 1.87 ± 0.07 |
| COc1cc([C@@H]2Oc3c(O)cc(-c4oc5cc(O)cc(O)c5c(=O)c4O)cc3[C@H]2CO)ccc1O [compound 6, 2,3-dehydrosilychristin A, reference compound] | 1.16 | 22.3 ± 1 | 1.9 ± 0.2 |  | 11 ± 0.4 | 42.1 ± 2.7 | 2.43 |
| O=C1c2c(cc(O)c(Br)c2O)O[C@H](c2ccc(O)c(O)c2)[C@H]1O [compound 7, 6-Bromotaxifolin] | 1.33 ± 0.03 | 38.9 ± 1.6 | 1.5 ± 0.1 |  | 19.7 ± 1 | 78.4 ± 7.8 | 1.70 ± 0.01 |
| O=C1c2c(O)c(Br)c(O)c(Br)c2O[C@H](c2ccc(O)c(O)c2)[C@H]1O [compound 8, 6,8-dibromotaxifolin] | 2.20 ± 0.03 | 38.1 ± 2 | 1.5 ± 0.1 |  | 109.3 ± 0.8 | 62.2 ± 4.2 | 2.08 ± 0.04 |
